Experimental data from ChEMBL document CHEMBL1770058, “MMP-13 selective alpha-sulfone hydroxamates: identification of selective P1' amides” (Bioorg Med Chem Lett, 2011).

Tests used:
[1] = biological target: T1, Interstitial collagenase (Homo sapiens, UniProt P03956); assay: Inhibition of human MMP1
T1 sequence (P03956 whole entry): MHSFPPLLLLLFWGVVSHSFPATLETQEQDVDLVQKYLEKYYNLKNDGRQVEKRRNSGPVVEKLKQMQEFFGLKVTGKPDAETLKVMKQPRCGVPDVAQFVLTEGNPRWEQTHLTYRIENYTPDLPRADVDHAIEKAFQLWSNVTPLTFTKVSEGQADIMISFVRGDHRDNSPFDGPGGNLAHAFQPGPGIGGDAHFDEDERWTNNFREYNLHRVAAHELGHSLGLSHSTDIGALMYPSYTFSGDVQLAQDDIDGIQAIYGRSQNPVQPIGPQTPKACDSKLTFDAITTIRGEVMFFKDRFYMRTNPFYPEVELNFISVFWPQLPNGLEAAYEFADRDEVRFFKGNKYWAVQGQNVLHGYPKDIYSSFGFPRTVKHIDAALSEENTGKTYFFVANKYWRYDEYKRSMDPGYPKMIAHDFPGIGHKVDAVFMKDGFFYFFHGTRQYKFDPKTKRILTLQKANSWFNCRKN

[2] = biological target: Matrix metalloproteinase-14 (Homo sapiens, UniProt P50281); assay: Inhibition of human MMP14
[3] = biological target: Collagenase 3 (Homo sapiens, UniProt P45452); assay: Inhibition of human MMP13
[4] = biological target: Neutrophil collagenase (Homo sapiens, UniProt P22894); assay: Inhibition of human MMP8
Sequence of Neutrophil collagenase (P22894 whole entry): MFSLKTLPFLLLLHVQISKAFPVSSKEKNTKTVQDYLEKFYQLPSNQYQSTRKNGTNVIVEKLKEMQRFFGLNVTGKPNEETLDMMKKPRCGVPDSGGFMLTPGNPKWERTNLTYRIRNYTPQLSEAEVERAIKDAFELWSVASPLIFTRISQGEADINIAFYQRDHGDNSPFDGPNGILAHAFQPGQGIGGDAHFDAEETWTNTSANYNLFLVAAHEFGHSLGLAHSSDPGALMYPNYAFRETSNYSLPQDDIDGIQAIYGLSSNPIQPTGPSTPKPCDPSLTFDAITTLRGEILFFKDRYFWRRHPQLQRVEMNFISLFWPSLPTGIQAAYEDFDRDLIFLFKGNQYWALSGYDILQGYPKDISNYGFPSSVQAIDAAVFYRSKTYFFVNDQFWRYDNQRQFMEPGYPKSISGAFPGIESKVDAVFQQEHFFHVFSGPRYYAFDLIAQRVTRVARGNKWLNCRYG

[5] = biological target: 72 kDa type IV collagenase (Homo sapiens, UniProt P08253); assay: Inhibition of human MMP2
Sequence of 72 kDa type IV collagenase (P08253 whole entry): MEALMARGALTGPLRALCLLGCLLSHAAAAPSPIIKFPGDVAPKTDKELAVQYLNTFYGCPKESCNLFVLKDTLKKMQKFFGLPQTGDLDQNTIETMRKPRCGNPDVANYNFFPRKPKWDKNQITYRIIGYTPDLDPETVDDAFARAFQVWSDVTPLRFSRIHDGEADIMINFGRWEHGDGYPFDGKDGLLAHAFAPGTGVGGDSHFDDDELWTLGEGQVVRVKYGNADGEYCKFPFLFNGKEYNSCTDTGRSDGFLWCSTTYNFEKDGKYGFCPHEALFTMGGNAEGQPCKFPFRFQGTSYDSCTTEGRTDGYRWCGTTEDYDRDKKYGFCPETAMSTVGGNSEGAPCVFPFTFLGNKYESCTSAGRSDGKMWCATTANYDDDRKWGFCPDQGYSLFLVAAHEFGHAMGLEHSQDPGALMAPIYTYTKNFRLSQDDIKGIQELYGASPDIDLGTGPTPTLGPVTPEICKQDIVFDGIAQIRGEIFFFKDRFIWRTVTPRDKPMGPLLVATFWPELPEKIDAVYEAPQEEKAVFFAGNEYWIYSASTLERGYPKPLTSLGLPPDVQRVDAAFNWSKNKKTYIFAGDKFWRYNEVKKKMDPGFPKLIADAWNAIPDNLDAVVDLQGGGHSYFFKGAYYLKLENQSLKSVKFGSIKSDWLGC

[6] = biological target: Matrix metalloproteinase-9 (Homo sapiens, UniProt P14780); assay: Inhibition of human MMP9
Sequence of Matrix metalloproteinase-9 (P14780 whole entry): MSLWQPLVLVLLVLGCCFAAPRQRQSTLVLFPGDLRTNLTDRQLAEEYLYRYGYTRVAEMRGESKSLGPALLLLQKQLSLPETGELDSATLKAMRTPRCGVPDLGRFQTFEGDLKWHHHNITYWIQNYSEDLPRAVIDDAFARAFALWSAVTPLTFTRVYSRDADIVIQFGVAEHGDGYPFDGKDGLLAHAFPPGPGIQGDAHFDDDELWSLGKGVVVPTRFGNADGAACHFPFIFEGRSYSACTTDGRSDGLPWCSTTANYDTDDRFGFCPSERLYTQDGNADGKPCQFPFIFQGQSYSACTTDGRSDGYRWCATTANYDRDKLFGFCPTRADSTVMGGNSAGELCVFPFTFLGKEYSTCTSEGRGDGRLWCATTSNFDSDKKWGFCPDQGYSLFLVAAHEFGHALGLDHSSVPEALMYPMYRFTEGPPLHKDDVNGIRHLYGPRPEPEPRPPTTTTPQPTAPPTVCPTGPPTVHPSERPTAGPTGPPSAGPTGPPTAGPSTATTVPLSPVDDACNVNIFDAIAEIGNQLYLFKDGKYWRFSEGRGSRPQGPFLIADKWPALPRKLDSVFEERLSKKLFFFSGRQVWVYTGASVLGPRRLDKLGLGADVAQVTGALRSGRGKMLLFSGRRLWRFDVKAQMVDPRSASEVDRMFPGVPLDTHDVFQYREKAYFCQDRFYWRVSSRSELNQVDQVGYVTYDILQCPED

[7] = Half life in rat; assay type: ADME, organism-based; settings: in vivo
[8] = Bioavailability in rat; assay type: ADME, organism-based; settings: in vivo

SMILES | IC50 [3] | IC50 [4] | IC50 [5] | IC50 [6] | also measured
C#CCN1CCC(C(=O)NO)(S(=O)(=O)c2ccc(Sc3ccccc3)cc2)CC1 |  |  |  |  | IC50 [1]: > 5000 nM; IC50 [2]: 8 nM
CN(C)c1ccc(C(=O)C2CCN(c3ccc(S(=O)(=O)C4(C(=O)NO)CCOCC4)cc3)CC2)cc1 | 8 nM | > 10000 nM | 4000 nM | > 10000 nM | 
COc1ccc(C(=O)NCCCOc2ccc(S(=O)(=O)C3(C(=O)NO)CCOCC3)cc2)cc1 |  | 900 nM |  |  | half-life [7]: 34.8 min; bioavailability [8]: 1.5%
CN(C)c1ccc(C(=O)NCCCOc2ccc(S(=O)(=O)C3(C(=O)NO)CCOCC3)cc2)cc1 | 2 nM | 1000 nM | 1100 nM |  | 
Cc1ccc(C(=O)NCCCOc2ccc(S(=O)(=O)C3(C(=O)NO)CCOCC3)cc2)c(C)c1 | 8 nM | 700 nM |  |  | 
O=C(NCCCOc1ccc(S(=O)(=O)C2(C(=O)NO)CCOCC2)cc1)C1CCCCC1 | 8.2 nM | 3100 nM |  |  | 
CCCC(C)(C)C(=O)NCCCOc1ccc(S(=O)(=O)C2(C(=O)NO)CCOCC2)cc1 | 30 nM | 1200 nM |  |  | 
CN(C)c1ccc(C(=O)CCCOc2ccc(S(=O)(=O)C3(C(=O)NO)CCOCC3)cc2)cc1 |  | 170 nM |  |  | 
O=C(CCCOc1ccc(S(=O)(=O)C2(C(=O)NO)CCOCC2)cc1)N1CCCCC1 | 1.2 nM | 800 nM | 170 nM | 670 nM | 

Continued, in another order:

IC50 [3] | IC50 [4] | IC50 [5] | IC50 [6] | SMILES | also measured
0.3 nM | 31 nM | 2.5 nM | 23 nM | COc1ccc(NC(=O)CCCOc2ccc(S(=O)(=O)C3(C(=O)NO)CCOCC3)cc2)cc1 | 
3.3 nM | 49 nM | 270 nM | 380 nM | CN(C(=O)CCCOc1ccc(S(=O)(=O)C2(C(=O)NO)CCOCC2)cc1)c1ccc(OC(F)(F)F)cc1 | 
0.4 nM | 140 nM | 35 nM | 1100 nM | CN(C)c1ccc(C(=O)CCCCOc2ccc(S(=O)(=O)C3(C(=O)NO)CCOCC3)cc2)cc1 | 
0.66 nM | 140 nM | 360 nM | 2200 nM | O=C(NCCCOc1ccc(S(=O)(=O)C2(C(=O)NO)CCOCC2)cc1)c1ccc(OC(F)(F)F)cc1 | 
0.9 nM | 120 nM | 16 nM |  | CN(C)c1ccc(C(=O)CCOc2ccc(S(=O)(=O)C3(C(=O)NO)CCOCC3)cc2)cc1 | 
 | 100 nM | 10 nM |  | CN(C)c1ccc(NC(=O)CCCOc2ccc(S(=O)(=O)C3(C(=O)NO)CCOCC3)cc2)cc1 | 
 | 6.7 nM | 11 nM |  | O=C(CCCOc1ccc(S(=O)(=O)C2(C(=O)NO)CCOCC2)cc1)Nc1ccc(OC(F)(F)F)cc1 | 
 | 2.6 nM |  |  | CN(C)c1ccc(NC(=O)CCCCOc2ccc(S(=O)(=O)C3(C(=O)NO)CCOCC3)cc2)cc1 | 
 | 67 nM |  |  | COc1ccc(OCCCCOc2ccc(S(=O)(=O)C3(C(=O)NO)CCOCC3)cc2)cc1 | 
